US20170190671A1, “BIS(ARYL)CATECHOL DERIVATIVES AS HERBICIDES” (E I DU PONT DE NEMOURS AND COMPANY, priority 2014, published 2017)

Assays:
Test in all cases: Test C preemergence
Format in all cases: in vivo
[1] = system: large (Lg) crabgrass (Digitaria sanguinalis); conditions: Digitaria sanguinalis, pre-emergence, 336 h, scale 0 to 100, read-out: Plant response rating, Crabgrass, Large
How it was run: (§1)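 Steps: plant seeds in loam-sand soil and treat preemergence, or grow plants in peat-based medium to 2-18 cm and spray; compound formulated in non-phytotoxic solvent/surfactant; hold in greenhouse 13-15 days; score visually versus controls from 0 (no effect) to 100 (complete control).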

[2] = system: pigweed (Amaranthus retroflexus); conditions: Amaranthus retroflexus, pre-emergence, 336 h, scale 0 to 100, read-out: Plant response rating, Pigweed
How it was run: as §1

soybean (Glycine max) = conditions: Glycine max, pre-emergence, scale 0 to 100, read-out: Plant response rating, Soybean
How it was run: as §1

[3] = system: lambsquarters (Chenopodium album); conditions: Chenopodium album, pre-emergence, 336 h, scale 0 to 100, read-out: Plant response rating, Lambsquarters
How it was run: as §1

[4] = system: winter wheat (Triticum aestivum); conditions: Triticum aestivum, pre-emergence, 336 h, scale 0 to 100, read-out: Plant response rating, Wheat
How it was run: as §1

[5] = system: barnyardgrass (Echinochloa crus-galli); conditions: Echinochloa crus-galli, pre-emergence, read-out: Plant response rating, Barnyardgrass
How it was run: as §1

[6] = system: morningglory (Ipomoea coccinea); conditions: Ipomoea, pre-emergence, 336 h, scale 0 to 100, read-out: Plant response rating, Morningglory
How it was run: as §1

[7] = system: Italian ryegrass (Lolium multiflorum); conditions: Lolium multiflorum, pre-emergence, 336 h, scale 0 to 100, read-out: Plant response rating, Ryegrass, Italian
How it was run: as §1

[8] = system: yellow nutsedge (Cyperus esculentus); conditions: Cyperus, pre-emergence, 336 h, scale 0 to 100, read-out: Plant response rating, Nutsedge, Yellow
How it was run: as §1

[9] = system: velvetleaf (Abutilon theophrasti); conditions: Abutilon theophrasti, pre-emergence, scale 0 to 100, read-out: Plant response rating, Velvetleaf
How it was run: as §1

corn (Zea mays) = conditions: Zea mays, pre-emergence, 336 h, preemergence, scale 0 to 100
How it was run: as §1

## N#Cc1cccc(Oc2ncc(C(F)(F)F)cn2)c1Oc1ncc(Cl)cn1 [Compound 39, 2-[(5-chloro-2-pyrimidinyl)oxy]-3-[[5-(trifluoromethyl)-2-pyrimidinyl]oxy]-benzonitrile]
[1]; 31 g ai/ha, preemergence
  pest or weed control at 31 g/ha: 100%
[1]; 62 g ai/ha, preemergence
  pest or weed control at 62 g/ha: 100%
[1]; 125 g ai/ha, preemergence
  pest or weed control at 125 g/ha: 100%
[1]; Preemergence, 16 g ai/ha
  pest or weed control at 16 g/ha: 100%
[2]; 31 g ai/ha, preemergence
  pest or weed control at 31 g/ha: 98%
[2]; 62 g ai/ha, preemergence
  pest or weed control at 62 g/ha: 100%
[2]; 125 g ai/ha, preemergence
  pest or weed control at 125 g/ha: 100%
[2]; Preemergence, 16 g ai/ha
  pest or weed control at 16 g/ha: 100%
Soybean (Glycine max); 31 g ai/ha, preemergence
  plant injury at 31 g/ha: 65%
Soybean (Glycine max); 62 g ai/ha, preemergence
  plant injury at 62 g/ha: 85%
Soybean (Glycine max); 125 g ai/ha, preemergence
  plant injury at 125 g/ha: 95%
Soybean (Glycine max); Preemergence, 16 g ai/ha
  plant injury at 16 g/ha: 35%
[3]; 31 g ai/ha, preemergence
  pest or weed control at 31 g/ha: 90%
[3]; 62 g ai/ha, preemergence
  pest or weed control at 62 g/ha: 98%
[3]; 125 g ai/ha, preemergence
  pest or weed control at 125 g/ha: 95%
[3]; Preemergence, 16 g ai/ha
  pest or weed control at 16 g/ha: 60%
[4]; 31 g ai/ha, preemergence
  plant injury at 31 g/ha: 0%
[4]; 62 g ai/ha, preemergence
  plant injury at 62 g/ha: 30%
[4]; 125 g ai/ha, preemergence
  plant injury at 125 g/ha: 60%
[4]; Preemergence, 16 g ai/ha
  plant injury at 16 g/ha: 0%
[5]; 31 g ai/ha, preemergence, scale 0 to 100
  pest or weed control at 31 g/ha: 95%
[5]; 62 g ai/ha, preemergence, scale 0 to 100
  pest or weed control at 62 g/ha: 95%
[5]; 125 g ai/ha, preemergence, scale 0 to 100
  pest or weed control at 125 g/ha: 100%
[5]; Preemergence, 16 g ai/ha, scale 0 to 100 (0 no effect, 100 complete control)
  pest or weed control at 16 g/ha: 65%
[6]; 31 g ai/ha, preemergence
  pest or weed control at 31 g/ha: 80%
[6]; 62 g ai/ha, preemergence
  pest or weed control at 62 g/ha: 98%
[6]; 125 g ai/ha, preemergence
  pest or weed control at 125 g/ha: 100%
[6]; Preemergence, 16 g ai/ha
  pest or weed control at 16 g/ha: 45%
[7]; 31 g ai/ha, preemergence
  pest or weed control at 31 g/ha: 20%
[7]; 62 g ai/ha, preemergence
  pest or weed control at 62 g/ha: 75%
[7]; 125 g ai/ha, preemergence
  pest or weed control at 125 g/ha: 90%
[7]; Preemergence, 16 g ai/ha
  pest or weed control at 16 g/ha: 0%
[8]; 31 g ai/ha, preemergence
  pest or weed control at 31 g/ha: 20%
[8]; 62 g ai/ha, preemergence
  pest or weed control at 62 g/ha: 85%
[8]; 125 g ai/ha, preemergence
  pest or weed control at 125 g/ha: 85%
[8]; Preemergence, 16 g ai/ha
  pest or weed control at 16 g/ha: 0%
[9]; 31 g ai/ha, preemergence
  pest or weed control at 31 g/ha: 75%
[9]; 62 g ai/ha, preemergence
  pest or weed control at 62 g/ha: 100%
[9]; 125 g ai/ha, preemergence
  pest or weed control at 125 g/ha: 100%
[9]; Preemergence, 16 g ai/ha
  pest or weed control at 16 g/ha: 40%
Corn (Zea mays); 31 g ai/ha
  Corn plant response rating (crop injury, 0 = no effect, 100 = complete kill) at 31 g/ha: 40%
Corn (Zea mays); 62 g ai/ha
  Corn plant response rating (crop injury, 0 = no effect, 100 = complete kill) at 62 g/ha: 45%
Corn (Zea mays); 125 g ai/ha
  Corn plant response rating (crop injury, 0 = no effect, 100 = complete kill) at 125 g/ha: 85%
